Data as given in patent publication US11497752B2, “Compounds and uses thereof” (Foghorn Therapeutics Inc., priority 2018, dated 2022).

Assays:
BRG-1 = BRG-1 (Homo sapiens, UniProt P51532); experiment: ATPase catalytic activity of BRG-1 (ADP-Glo in vitro biochemical assay)
BRM = BRM (Homo sapiens, UniProt P51531); experiment: ATPase catalytic activity of BRM (ADP-Glo in vitro biochemical assay)
Chain of BRM (P51531 whole entry): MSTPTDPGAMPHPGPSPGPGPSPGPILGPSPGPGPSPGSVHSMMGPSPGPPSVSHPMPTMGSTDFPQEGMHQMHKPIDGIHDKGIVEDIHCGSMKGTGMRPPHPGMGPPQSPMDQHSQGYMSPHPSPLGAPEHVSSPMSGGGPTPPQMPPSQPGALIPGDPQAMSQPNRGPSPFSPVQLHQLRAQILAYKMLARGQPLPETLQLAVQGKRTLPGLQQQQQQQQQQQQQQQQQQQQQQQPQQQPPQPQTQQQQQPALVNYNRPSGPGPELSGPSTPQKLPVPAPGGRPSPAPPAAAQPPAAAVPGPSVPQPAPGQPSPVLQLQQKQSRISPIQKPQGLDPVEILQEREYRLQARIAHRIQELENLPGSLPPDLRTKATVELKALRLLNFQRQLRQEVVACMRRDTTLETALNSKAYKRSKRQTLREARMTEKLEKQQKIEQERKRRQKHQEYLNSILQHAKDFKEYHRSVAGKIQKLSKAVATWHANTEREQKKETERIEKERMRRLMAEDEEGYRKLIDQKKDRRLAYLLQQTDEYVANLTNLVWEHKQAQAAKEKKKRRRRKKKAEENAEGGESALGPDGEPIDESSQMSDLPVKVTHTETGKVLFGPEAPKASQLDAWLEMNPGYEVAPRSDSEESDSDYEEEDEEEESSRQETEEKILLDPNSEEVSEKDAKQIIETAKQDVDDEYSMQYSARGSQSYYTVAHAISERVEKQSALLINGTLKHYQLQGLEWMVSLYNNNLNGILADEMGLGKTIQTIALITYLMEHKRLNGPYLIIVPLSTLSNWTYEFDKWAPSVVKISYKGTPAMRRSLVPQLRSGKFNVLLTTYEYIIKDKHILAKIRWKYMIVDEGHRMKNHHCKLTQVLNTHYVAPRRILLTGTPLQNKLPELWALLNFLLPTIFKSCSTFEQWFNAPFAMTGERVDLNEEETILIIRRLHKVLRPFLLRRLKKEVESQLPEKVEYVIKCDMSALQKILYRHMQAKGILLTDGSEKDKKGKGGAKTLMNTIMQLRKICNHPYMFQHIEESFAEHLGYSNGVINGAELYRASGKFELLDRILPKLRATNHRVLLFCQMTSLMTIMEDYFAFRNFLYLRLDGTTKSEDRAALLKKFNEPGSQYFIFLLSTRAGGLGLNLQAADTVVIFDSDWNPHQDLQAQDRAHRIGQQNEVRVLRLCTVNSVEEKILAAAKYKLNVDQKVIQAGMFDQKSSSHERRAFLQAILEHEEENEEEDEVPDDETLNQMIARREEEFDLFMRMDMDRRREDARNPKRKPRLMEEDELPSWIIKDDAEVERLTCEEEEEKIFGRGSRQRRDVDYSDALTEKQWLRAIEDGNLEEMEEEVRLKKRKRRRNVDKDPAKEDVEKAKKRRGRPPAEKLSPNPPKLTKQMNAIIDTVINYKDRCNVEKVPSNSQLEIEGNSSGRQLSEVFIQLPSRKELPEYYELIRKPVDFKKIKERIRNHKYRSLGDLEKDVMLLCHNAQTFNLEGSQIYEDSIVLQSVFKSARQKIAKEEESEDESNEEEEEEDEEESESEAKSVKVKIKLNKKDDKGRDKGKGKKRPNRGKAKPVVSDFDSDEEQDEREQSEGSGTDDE

Chain of BRG-1 (P51532 whole entry): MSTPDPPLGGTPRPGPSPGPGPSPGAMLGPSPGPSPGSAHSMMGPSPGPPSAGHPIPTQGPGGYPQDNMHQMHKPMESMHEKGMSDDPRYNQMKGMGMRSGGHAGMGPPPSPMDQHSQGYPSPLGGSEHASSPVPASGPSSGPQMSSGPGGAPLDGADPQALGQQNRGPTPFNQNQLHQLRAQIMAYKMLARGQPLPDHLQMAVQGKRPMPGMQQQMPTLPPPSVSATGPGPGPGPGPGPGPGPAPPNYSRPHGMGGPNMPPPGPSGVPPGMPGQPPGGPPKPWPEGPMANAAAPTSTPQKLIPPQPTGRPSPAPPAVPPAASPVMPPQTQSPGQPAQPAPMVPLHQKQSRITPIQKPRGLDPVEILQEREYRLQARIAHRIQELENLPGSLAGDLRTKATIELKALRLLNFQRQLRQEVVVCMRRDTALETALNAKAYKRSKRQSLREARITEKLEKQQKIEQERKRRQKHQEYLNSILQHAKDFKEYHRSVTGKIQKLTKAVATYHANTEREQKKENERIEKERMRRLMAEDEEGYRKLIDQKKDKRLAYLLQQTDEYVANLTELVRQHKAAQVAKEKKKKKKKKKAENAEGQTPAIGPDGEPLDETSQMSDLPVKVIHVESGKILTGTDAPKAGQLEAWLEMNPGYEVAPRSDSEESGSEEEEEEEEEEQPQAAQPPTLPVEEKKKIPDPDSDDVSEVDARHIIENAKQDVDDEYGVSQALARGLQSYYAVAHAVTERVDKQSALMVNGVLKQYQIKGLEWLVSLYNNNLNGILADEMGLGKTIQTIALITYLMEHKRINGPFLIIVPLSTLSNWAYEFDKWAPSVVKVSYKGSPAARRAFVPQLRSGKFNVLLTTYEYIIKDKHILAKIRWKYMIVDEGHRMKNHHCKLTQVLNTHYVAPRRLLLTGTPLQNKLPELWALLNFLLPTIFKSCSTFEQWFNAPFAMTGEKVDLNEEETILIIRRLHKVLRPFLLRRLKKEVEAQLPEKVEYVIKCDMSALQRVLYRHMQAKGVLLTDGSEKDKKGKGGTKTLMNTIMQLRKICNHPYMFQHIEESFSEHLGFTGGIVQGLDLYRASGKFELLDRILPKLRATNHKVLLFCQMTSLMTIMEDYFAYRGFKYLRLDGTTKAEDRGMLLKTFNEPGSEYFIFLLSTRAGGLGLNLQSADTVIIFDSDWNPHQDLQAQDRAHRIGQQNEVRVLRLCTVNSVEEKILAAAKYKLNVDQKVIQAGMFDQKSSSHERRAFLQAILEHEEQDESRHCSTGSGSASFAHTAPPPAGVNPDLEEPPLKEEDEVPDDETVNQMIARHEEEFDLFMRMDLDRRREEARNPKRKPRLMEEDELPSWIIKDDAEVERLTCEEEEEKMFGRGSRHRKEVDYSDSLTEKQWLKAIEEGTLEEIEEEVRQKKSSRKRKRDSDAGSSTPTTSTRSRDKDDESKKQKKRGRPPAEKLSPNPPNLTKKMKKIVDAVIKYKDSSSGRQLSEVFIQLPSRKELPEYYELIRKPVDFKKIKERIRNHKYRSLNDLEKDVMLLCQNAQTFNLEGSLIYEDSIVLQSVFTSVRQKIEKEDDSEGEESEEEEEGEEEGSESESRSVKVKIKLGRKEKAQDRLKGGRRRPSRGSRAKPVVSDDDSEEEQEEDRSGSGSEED

Cn1cnc2ccc(-c3csc(NC(=O)CNC(=O)c4ccc(N)cc4)n3)cc2c1=O [Compound 148, 4-amino-N-(2-((4-(3-methyl-4-oxo-3,4-dihydroquinazolin-6-yl)thiazol-2-yl)amino)-2-oxoethyl)benzamide]
IC50 (BRG-1): < 100 nM | BRG1 Max % Inhibition (BRG-1; Table 6): >95% | IC50 (BRM): < 100 nM | BRM Max % Inhibition (BRM; Table 6): >95%

CN(C)c1ccc(C(=O)NCC(=O)Nc2nc(-c3cccc(-c4ccncc4)c3)cs2)cc1 [Compound 132, 4-(dimethylamino)-N-(2-oxo-2-((4-(3-(pyridin-4-yl)phenyl)thiazol-2-yl)amino)ethyl)benzamide]
IC50 (BRG-1): < 100 nM | BRG1 Max % Inhibition (BRG-1; Table 6): >70% | IC50 (BRM): < 100 nM | BRM Max % Inhibition (BRM; Table 6): >80%

Nc1ccc(C(=O)NCC(=O)Nc2nc(-c3cccc(-c4ccnc(CC(=O)O)c4)c3)cs2)cc1 [Compound 224, [2-[4-[3-[2-[[2-[(4-aminobenzoyl)amino]acetyl]amino]thiazol-4-yl]phenyl]-2-pyridyl]acetyl]oxysodium]
IC50 (BRG-1): < 100 nM | BRG1 Max % Inhibition (BRG-1; Table 6): >90% | IC50 (BRM): < 100 nM | BRM Max % Inhibition (BRM; Table 6): >95%

CSCC[C@H](NC(=O)c1ccc(N)cc1)C(=O)Nc1nc(-c2ccc(CNC(C)=O)cc2)cs1 [Compound 121, (S)-N-(1-((4-(4-(acetamidomethyl)phenyl)thiazol-2-yl)amino)-4-(methylthio)-1-oxobutan-2-yl)-4-aminobenzamide]
IC50 (BRG-1): 100 to 1000 nM | BRG1 Max % Inhibition (BRG-1; Table 6): >95% | IC50 (BRM): 100 to 1000 nM | BRM Max % Inhibition (BRM; Table 6): >95%

O=C(CNC(=O)c1ccc2cncn2c1)Nc1nc(-c2cccc(-c3ccncc3)c2)cs1 [Compound 101, N-(2-oxo-2-((4-(3-(pyridin-4-yl)phenyl)thiazol-2-yl)amino)ethyl)imidazo[1,5-a]pyridine-6-carboxamide]
IC50 (BRG-1): 100 to 1000 nM | BRG1 Max % Inhibition (BRG-1; Table 6): >95% | IC50 (BRM): 100 to 1000 nM | BRM Max % Inhibition (BRM; Table 6): >95%

CS(=O)(=O)c1cccc(C(=O)NCC(=O)Nc2nc(-c3ccc4c(c3)OCCO4)cs2)c1 [Compound 92, N-(2-((4-(2,3-dihydrobenzo[b][1,4]dioxin-6-yl)thiazol-2-yl)amino)-2-oxoethyl)-3-(methylsulfonyl)benzamide]
IC50 (BRG-1): 100 to 1000 nM | BRG1 Max % Inhibition (BRG-1; Table 6): >80% | IC50 (BRM): 100 to 1000 nM | BRM Max % Inhibition (BRM; Table 6): >90%

O=C(N[C@@H](CCc1ccccc1)C(=O)Nc1nc(-c2ccccc2)cs1)c1ccccc1 [Compound 49, N-[(1S)-3-phenyl-1-[(4-phenylthiazol-2-yl)carbamoyl]propyl]benzamide]
IC50 (BRG-1): 1000 to 10000 nM | IC50 (BRM): 1000 to 10000 nM

CN(C)S(=O)(=O)c1cccc(C(=O)NCC(=O)Nc2nc(-c3ccc(CN)cc3)cs2)c1 [Compound 22, N-[2-[[4-[4-(aminomethyl)phenyl]thiazol-2-yl]amino]-2-oxo-ethyl]-3-(dimethylsulfamoyl)benzamide]
IC50 (BRG-1): > 10000 nM | BRG1 Max % Inhibition (BRG-1; Table 5): >60% | IC50 (BRM): > 10000 nM | BRM Max % Inhibition (BRM; Table 5): >70%

Cc1ccc(C(=O)NCC(=O)Nc2nc(-c3ccccc3)cs2)cc1S(C)(=O)=O [Compound 19, 4-methyl-3-(methylsulfonyl)-N-(2-oxo-2-((4-phenylthiazol-2-yl)amino)ethyl)benzamide]
IC50 (BRG-1): > 10000 nM | BRG1 Max % Inhibition (BRG-1; Table 5): >30% | IC50 (BRM): < 1000 nM | BRM Max % Inhibition (BRM; Table 5): >70%

CSCC[C@H](NC(=O)c1ccc(NS(C)(=O)=O)cc1)C(=O)Nc1nc(-c2ccccc2)cs1 [Compound 38, 4-(methanesulfonamido)-N-[(1S)-3-methylsulfanyl-1-[(4-phenylthiazol-2-yl)carbamoyl]propyl]benzamide]
IC50 (BRG-1): > 10000 nM | BRG1 Max % Inhibition (BRG-1; Table 5): >80% | IC50 (BRM): > 10000 nM | BRM Max % Inhibition (BRM; Table 5): >80%

Nc1ccc(C(=O)NCC(=O)Nc2nc(-c3ccccc3O)cs2)cc1 [Compound 114, 4-amino-N-(2-((4-(2-hydroxyphenyl)thiazol-2-yl)amino)-2-oxoethyl)benzamide]
IC50 (BRG-1): 1000 to 10000 nM | BRG1 Max % Inhibition (BRG-1; Table 6): >80% | IC50 (BRM): 100 to 1000 nM | BRM Max % Inhibition (BRM; Table 6): >80%

CO[C@H]1CCCN(c2cccc(-c3csc(NC(=O)CNC(=O)c4ccc(N)cc4)n3)c2)C1 [Compound 238, 4-amino-N-[2-[[4-[3-[(3S)-3-methoxy-1-piperidyl]phenyl]thiazol-2-yl]amino]-2-oxo-ethyl]benzamide]
IC50 (BRG-1): 100 to 1000 nM | BRG1 Max % Inhibition (BRG-1; Table 6): >95% | IC50 (BRM): 100 to 1000 nM | BRM Max % Inhibition (BRM; Table 6): >90%

CC(C)S(=O)(=O)c1cccc(C(=O)NCC(=O)Nc2nc(-c3ccccc3)cs2)c1 [Compound 6, 3-(isopropylsulfonyl)-N-(2-oxo-2-((4-phenylthiazol-2-yl)amino)ethyl)benzamide]
IC50 (BRG-1): > 10000 nM | BRG1 Max % Inhibition (BRG-1; Table 5): >60% | IC50 (BRM): 1000 to 10000 nM | BRM Max % Inhibition (BRM; Table 5): >90%

CNC(=O)c1cccc(-c2cccc(-c3csc(NC(=O)CNC(=O)c4ccc(N)cc4)n3)c2)c1 [Compound 144, 3-[3-[2-[[2-[(4-aminobenzoyl)amino]acetyl]amino]thiazol-4-yl]phenyl]-N-methyl-benzamide]
IC50 (BRG-1): 100 to 1000 nM | BRG1 Max % Inhibition (BRG-1; Table 6): >95% | IC50 (BRM): 100 to 1000 nM | BRM Max % Inhibition (BRM; Table 6): >95%

CSCC[C@H](NC(=O)c1cccc(C(F)(F)F)c1)C(=O)Nc1nc(-c2ccccc2)cs1 [Compound 77, N-[(1S)-3-methylsulfanyl-1-[(4-phenylthiazol-2-yl)carbamoyl]propyl]-3-(trifluoromethyl)benzamide]
IC50 (BRG-1): > 10000 nM | BRG1 Max % Inhibition (BRG-1; Table 5): >30% | IC50 (BRM): > 10000 nM | BRM Max % Inhibition (BRM; Table 5): >30%

CSCC[C@H](NC(=O)c1ccc(CO)cc1)C(=O)Nc1nc(-c2ccccc2)cs1 [Compound 85, 4-(hydroxymethyl)-N-[(1S)-3-methylsulfanyl-1-[(4-phenylthiazol-2-yl)carbamoyl]propyl]benzamide]
IC50 (BRG-1): 1000 to 10000 nM | BRG1 Max % Inhibition (BRG-1; Table 5): >90% | IC50 (BRM): 1000 to 10000 nM | BRM Max % Inhibition (BRM; Table 5): >95%

CN(C)CCNC(=O)Cc1cc(-c2cccc(-c3csc(NC(=O)CNC(=O)c4ccc(N)cc4)n3)c2)ccn1 [Compound 186, 4-amino-N-[2-[[4-[3-[2-[2-[2-(dimethylamino)ethylamino]-2-oxo-ethyl]-4-pyridyl]phenyl]thiazol-2-yl]amino]-2-oxo-ethyl]benzamide]
IC50 (BRG-1): 100 to 1000 nM | BRG1 Max % Inhibition (BRG-1; Table 6): >95% | IC50 (BRM): 100 to 1000 nM | BRM Max % Inhibition (BRM; Table 6): >95%

Nc1ccc(C(=O)NCC(=O)Nc2nc(-c3cccc(N4CCC(C(=O)O)CC4)c3)cs2)cc1 [Compound 187, 1-[3-[2-[[2-[(4-aminobenzoyl)amino]acetyl]amino]thiazol-4-yl]phenyl]piperidine-4-carboxylic acid]
IC50 (BRG-1): 100 to 1000 nM | BRG1 Max % Inhibition (BRG-1; Table 6): >60% | IC50 (BRM): 100 to 1000 nM | BRM Max % Inhibition (BRM; Table 6): >70%

COCC[C@H](NC(=O)c1ccc(N)cc1)C(=O)Nc1nc(-c2cccc(-c3ccncc3)c2)cs1 [Compound 178, (S)-4-amino-N-(4-methoxy-1-oxo-1-((4-(3-(pyridin-4-yl)phenyl)thiazol-2-yl)amino)butan-2-yl)benzamide]
IC50 (BRG-1): < 100 nM | BRG1 Max % Inhibition (BRG-1; Table 6): >95% | IC50 (BRM): < 100 nM | BRM Max % Inhibition (BRM; Table 6): >95%

CN(C)S(=O)(=O)c1cccc(C(=O)NCC(=O)Nc2nc(C3CCCCC3)cs2)c1 [Compound 34, N-[2-[(4-cyclohexylthiazol-2-yl)amino]-2-oxo-ethyl]-3-(dimethylsulfamoyl)benzamide]
IC50 (BRG-1): > 10000 nM | BRG1 Max % Inhibition (BRG-1; Table 5): >60% | IC50 (BRM): > 10000 nM | BRM Max % Inhibition (BRM; Table 5): >90%

CSCC[C@H](NC(=O)c1ccc(CN(C)C)cc1)C(=O)Nc1nc(-c2ccccc2)cs1 [Compound 60, 4-[(dimethylamino)methyl]-N-[(1S)-3-methylsulfanyl-1-[(4-phenylthiazol-2-yl)carbamoyl]propyl]benzamide]
IC50 (BRG-1): > 10000 nM | BRG1 Max % Inhibition (BRG-1; Table 5): >80% | IC50 (BRM): > 10000 nM | BRM Max % Inhibition (BRM; Table 5): >90%

Nc1ccc(C(=O)NCC(=O)Nc2nc(-c3cccc(-c4ccnc(CO)c4)c3)cs2)cc1 [Compound 165, 4-amino-N-(2-((4-(3-(2-(hydroxymethyl)pyridin-4-yl)phenyl)thiazol-2-yl)amino)-2-oxoethyl)benzamide]
IC50 (BRG-1): < 100 nM | BRG1 Max % Inhibition (BRG-1; Table 6): >95% | IC50 (BRM): < 100 nM | BRM Max % Inhibition (BRM; Table 6): >95%

Nc1ccc(C(=O)NCC(=O)Nc2nc(-c3ccc4c(c3)CCO4)cs2)cc1 [Compound 111, 4-amino-N-(2-((4-(2,3-dihydrobenzofuran-5-yl)thiazol-2-yl)amino)-2-oxoethyl)benzamide]
IC50 (BRG-1): 100 to 1000 nM | BRG1 Max % Inhibition (BRG-1; Table 6): >90% | IC50 (BRM): 100 to 1000 nM | BRM Max % Inhibition (BRM; Table 6): >90%

CN1CCN(c2cc(-c3cccc(-c4csc(NC(=O)CNC(=O)c5ccc(N)cc5)n4)c3)ccn2)CC1 [Compound 190, 4-amino-N-[2-[[4-[3-[2-(4-methylpiperazin-1-yl)-4-pyridyl]phenyl]thiazol-2-yl]amino]-2-oxo-ethyl]benzamide]
IC50 (BRG-1): 100 to 1000 nM | BRG1 Max % Inhibition (BRG-1; Table 6): >80% | IC50 (BRM): 100 to 1000 nM | BRM Max % Inhibition (BRM; Table 6): >80%

COc1cc(-c2cccc(-c3csc(NC(=O)CNC(=O)c4ccc(N)cn4)n3)c2)ccn1 [Compound 199, 5-amino-N-[2-[[4-[3-(2-methoxy-4-pyridyl)phenyl]thiazol-2-yl]amino]-2-oxo-ethyl]pyridine-2-carboxamide]
IC50 (BRG-1): 100 to 1000 nM | BRG1 Max % Inhibition (BRG-1; Table 6): >95% | IC50 (BRM): 100 to 1000 nM | BRM Max % Inhibition (BRM; Table 6): >95%

N#Cc1ccc(-c2cccc(-c3csc(NC(=O)CNC(=O)c4ccc(N)cc4)n3)c2)cc1 [Compound 149, 4-amino-N-(2-((4-(4′-cyano-[1,1′-biphenyl]-3-yl)thiazol-2-yl)amino)-2-oxoethyl)benzamide]
IC50 (BRG-1): < 100 nM | BRG1 Max % Inhibition (BRG-1; Table 6): >80% | IC50 (BRM): < 100 nM | BRM Max % Inhibition (BRM; Table 6): >80%

CNC(=O)Cn1ccc(-c2cccc(-c3csc(NC(=O)CNC(=O)c4ccc(N)cc4)n3)c2)n1 [Compound 216, 4-amino-N-[2-[[4-[3-[1-[2-(methylamino)-2-oxo-ethyl]pyrazol-3-yl]phenyl]thiazol-2-yl]amino]-2-oxo-ethyl]benzamide]
IC50 (BRG-1): 100 to 1000 nM | BRG1 Max % Inhibition (BRG-1; Table 6): >95% | IC50 (BRM): < 100 nM | BRM Max % Inhibition (BRM; Table 6): >90%
